Laboratory results from US8173428B2, “LNA oligonucleotides and the treatment of cancer” (Santaris Pharma A/S, priority 2004, dated 2012).
Like-named read-outs stand apart in the source and are kept apart here. Oligonucleotides are written 5' to 3', each unit as a sugar letter and its base; * is a phosphorothioate linkage, no mark a phosphodiester; rarer units and linkages stand in square brackets, end groups in braces. Plain capitals give the bases only. l = locked nucleic acid (LNA); [5mC] = 5-methylcytosine; d = 2'-deoxy (DNA)

Tests used:
Survivin protein = assay: Tumour analysis: Survivin protein by Western blotting after intratumoural injection; type: in vivo, Balb/cA-nu mice; settings: 25 mg/kg intratumoral, 6 times over 2 weeks, sampling 24 hours after last dose, versus saline
Procedure: (§1) Model: PC-3 human prostate cancer cells (ECACC) are mixed with Matrigel and injected s.c. into both flanks of female Balb/cA-nu mice on Day 0.
(§2) Administration: Oligonucleotides i.p. (see FIG. 8) or intratumoural (see FIG. 9), Taxol i.v., all according to schedule
cDNA synthesis: First strand synthesis was performed using OmniScript Reverse Transcriptase kit according to the manufacturer's instructions (Qiagen). […] Protein levels were analysed on individual tumours by western blotting (see FIG. 9). Real time PCR analysis: To determine the relative Survivin mRNA level treated and untreated tumours, the generated cDNA was used in quantitative PCR analysis using an iCycler from BioRad. The cDNA was diluted 5-fold and 8 μl was mixed with 52 μl Taqman probe master mix containing 30 μl Platinum Quantitative PCR SuperMix UDG 2×PCR master mix (Invitrogen), 3 μl 20× Taqman probe and primer mix (forward primer: 5′-[…]-3′ (SEQ ID NO. 29), final 0.9 μM. Reverse primer: 5′-[…]-3′ (SEQ ID NO. 30), final 0.6 μM and taqman probe: FAM-5′-[…]-TAMRA-3′ (SEQ ID NO. 31), final 0.1 μM) and 19 μl H2O. […] To normalize any variance in sample preparation, the endogenous GAPDH mRNA was quantified using a pre-developed Taqman assay reagent from Applied Biosystems (4310884E) according to manufacture's instructions. […] Total protein concentrations were measured using a BCA protein assay kit (Pierce). […]

15PC3 cells = assay: MTS assay of proliferating viable cells; type: cell-based, human
Procedure: Culturing of cells: 15PC3 was cultured in DMEM (Sigma) containing 10% fetal bovine serum, Glutamax I and gentamicin at 37° C., 95% humidity and 5% CO2. The cervical carcinoma cell line HeLa were cultured in MEM (Sigma) containing 10% fetal bovine serum, Glutamax I and gentamicin at 37° C., 95% humidity and 5% CO2. When reaching 60-70% confluency, the cells were transfected using Lipofectamine 2000 (5 μg/ml).
Cells were seeded to a density of 10000 cells per well in clear 96 well plate (Scientific Orange no. 1472030100) in DMEM the day prior to transfection. The next day cells were washed once in prewarmed OptiMEM followed by addition of 72 μl OptiMEM containing 5 μg/ml Lipofectamine 2000 (Invitrogen). Cells were incubated for 7 min before adding 18 μl oligonucleotides diluted in OptiMEM. […] After 4 hours of treatment, cells were washed in OptiMEM and 100 μl serum containing DMEM was added. Following oligonucleotide treatment cells were allowed to recover for the period indicated, viable cells were measured by adding 20 μl of the tetrazolium compound [3-(4,5-[…])-5-(3-carboxymethoxyphenyl)-2-(4-sulfophenyl)-2H-tetrazolium, inner salt; MTS] and an electron coupling reagent (phenazine ethosulfate, PES; CellTiter 96® AQueous One Solution Cell Proliferation Assay, Promega). Viable cells were measured at 490 nm and 650 nm in a Powerwave (Biotek Instruments).
The inhibition of growth rate ΔOD (490-650 nm)/h was plotted against the oligonucleotide concentration relative to mock, which was set to 100%. The maximum inhibition of proliferation observed in the MTS assay was 70% (minimum 30%). (Table 5 and FIG. 5)

Survivin mRNA = assay: Tumour analysis: Survivin mRNA after intratumoural injection; type: in vivo, Balb/cA-nu mice; settings: 25 mg/kg intratumoral, 6 times over 2 weeks, sampling 24 hours after last dose, versus saline
Procedure: as §1, §2
Total RNA isolation: Approximately 20 mg tumour tissue was homogenized in 400 μl RTL buffer (Qiagen) supplemented with 1% mercaptoethanol. Total RNA was isolated using RNeasy mini kit (Qiagen) according to the manufacture's instructions.
cDNA synthesis: First strand synthesis was performed using OmniScript Reverse Transcriptase kit according to the manufacturer's instructions (Qiagen). […] Protein levels were analysed on individual tumours by western blotting (see FIG. 9). Real time PCR analysis: To determine the relative Survivin mRNA level treated and untreated tumours, the generated cDNA was used in quantitative PCR analysis using an iCycler from BioRad. The cDNA was diluted 5-fold and 8 μl was mixed with 52 μl Taqman probe master mix containing 30 μl Platinum Quantitative PCR SuperMix UDG 2×PCR master mix (Invitrogen), 3 μl 20× Taqman probe and primer mix (forward primer: 5′-[…]-3′ (SEQ ID NO. 29), final 0.9 μM. Reverse primer: 5′-[…]-3′ (SEQ ID NO. 30), final 0.6 μM and taqman probe: FAM-5′-[…]-TAMRA-3′ (SEQ ID NO. 31), final 0.1 μM) and 19 μl H2O. […]

5′-^MeCsTs^MeCsAsastscscsastsgsgs^MeCsAsGsc-3′ (l[5mC]*lT*l[5mC]*lA*dA*dT*dC*dC*dA*dT*dG*dG*l[5mC]*lA*lG*dC) [SEQ ID NO. 2]
Survivin protein level in tumours (Survivin protein): reduced levels of both mRNA and Survivin protein | Proliferation (relative number of viable cells) (15PC3 cells; 0.2, 1, 5, 25 and 100 nM, 13-72 hours after transfection, 15PC3 cells): dose dependent inhibition of proliferation | IC50 (15PC3 cells; 48 hours (Table 7, FIG. 5), read-out: Proliferation IC50 (48 hours)): 5 nM | IC50 (15PC3 cells; 48 hours, transfected 15PC3 cells (Table 5), read-out: Inhibition of proliferation, MTS assay IC50 (48 hours)): 4.9 nM | Survivin mRNA level in tumours (Survivin mRNA): reduced levels of both mRNA and Survivin protein
